{"source": "paper PMC10940318", "about": "“Targeted intracellular delivery of dimeric STINGa by two pHLIP peptides for treatment of solid tumors” (Frontiers in Pharmacology, 2024)", "key": {"[1]": {"target": "human serum albumin (HSA) (Homo sapiens, UniProt P02768)", "method": "HSA was initially dissolved to 500 μM in deionized water and further diluted using pH 7.6 phosphate buffer. Dansylamide (DNSA) or dansylglycine (DNSG) (both from Tokyo Chemical Industry) were used as fluorescent markers, which are known to bind to specific sites on HSA. Each well contained 100 μL of sample consisting of the fluorescent marker DNSA or DNSG (1 μM), with different concentrations of pHLIP agents (0, 5, or 10 μM) and concentrations of HSA ranging from 0 μM to 100 μM. Samples were incubated for 2 h at 37°C. […] Fluorescence measurements from each well were performed at 485 nm with excitation at 365 nm at 37°C. As a control, binding of DNSA and DNSG were probed with each agent in absence of HSA. Before the measurements a plate reader optimization test was run. Data were fitted individually and globally using the Michaelis-Menten equation. […] Data was fitted by nonlinear least squares curve fitting procedures employing the Levenberg Marquardt algorithm using Origin 8.5.\nTable S1. Competitive binding assay.\nFigure S8. HSA binding. […] The global fitting was performed with each set of data and the fitting curves are shown as black, blue and red lines."}, "[2]": {"experiment": "Body weight of treated mice", "format": "in vivo, Balb/c mice", "conditions": "two IP injections, 300 µM or 100 µM 500 µL, days 1 and 3", "method": "For the treatment of CT26 tumors, 5 × 10^4 CT26 murine colorectal cancer cells (ATCC, CRL-2638) were injected subcutaneously (SQ) in 100 μL of growth medium into the right flank of female Balb/c mice ranging in age from 7 to 9 weeks (Envigo RMS, Inc.). […] 2pHLIP-dMSA was given as two IP injections of 300 μM 500 μL or 100 μM 500 μL (low dose). The compounds were dissolved in DMSO as a stock solution and transferred to PBS (vehicle). The residual DMSO in the final solution injected into animals was less than 2%. Tumor volume and body weight were measured 3 times per week throughout the study. Measurements of tumors were performed using calipers, and the tumor volume (V) was calculated with the formula: V=0.52∙L∙W^2 where L is the length and W is the width of the measured tumor. Mice were removed from the study and euthanized when the tumor volume was greater than 2,000 mm^3."}, "[3]": {"tested_on": "CT26 murine colorectal cancer tumors", "experiment": "Treatment of CT26 tumors in mice", "format": "in vivo, Balb/c mice", "conditions": "CT26 tumors 100-150 mm3, female Balb/c, followed 65 days", "method": "For the treatment of CT26 tumors, 5 × 10^4 CT26 murine colorectal cancer cells (ATCC, CRL-2638) were injected subcutaneously (SQ) in 100 μL of growth medium into the right flank of female Balb/c mice ranging in age from 7 to 9 weeks (Envigo RMS, Inc.). […] The compounds were dissolved in DMSO as a stock solution and transferred to PBS (vehicle). The residual DMSO in the final solution injected into animals was less than 2%. Tumor volume and body weight were measured 3 times per week throughout the study. Measurements of tumors were performed using calipers, and the tumor volume (V) was calculated with the formula: V=0.52∙L∙W^2 where L is the length and W is the width of the measured tumor. Mice were removed from the study and euthanized when the tumor volume was greater than 2,000 mm^3."}, "[4]": {"tested_on": "THP-1-Blue-ISG cells polarized into M2-type macrophages", "experiment": "Activation of IFN (IRF-SEAP reporter) in M2-polarized macrophages", "format": "cell-based, human", "conditions": "THP1-Blue-ISG cells polarized by PMA, IL-4/IL-13, 2 h in DMEM without FBS pH 6.9, then 48 h, QUANTI-Blue, absorbance 655 nm, read-out: EC50 of activation of IRF signaling", "method": "THP-1-Blue™-ISG cells (Invivogen) expressing an interferon (IFN) regulatory factor (IRF)-inducible secreted embryonic alkaline phosphatase (SEAP) reporter construct were used. Cells were maintained in RPMI growth medium supplemented with L-glutamine, sodium pyruvate, 10% fetal bovine serum (FBS), normocin and ciprofloxacin hydrochloride in a humidified atmosphere of 5% CO2 and 95% air at 37°C. Cells were seeded in 96-well plates at a density of 75,000 cells/well. To generate M2 polarized macrophages, cells were treated first with 185 ng/mL phorbol 12-myristate 13-acetate (PMA) for 6 h and then 20 ng/mL of interleukin 4 (IL-4) and 20 ng/mL of interleukin 13 (IL-13) (both from PeproTech) were added for another 16 h of treatment. […] After a 2-h incubation, an equal volume of RPMI supplemented with 20% heat-inactivated FBS was added, and cells were incubated for another 48 h. SEAP activity was accessed using the QUANTI-Blue™ Solution (Invivogen) to evaluate type I interferon protein levels: 150 μL of the colorimetric reagent was added to 50 μL of cell supernatant for 30 min, 37°C, followed by absorption measurement at 655 nm."}, "[5]": {"experiment": "Stopped-flow fluorescence kinetics of membrane insertion and exit", "format": "physicochemical", "conditions": "POPC liposomes", "method": "Fluorescence kinetics was measured using a SFM-300 mixing system (Bio-Logic Science Instruments) in combination with the MOS-450 spectrometer with the temperature control set to 25°C. All samples were degassed before measurement to minimize air bubbles in the samples. pHLIP-mMSA/2pHLIP-dMSA and POPC samples were incubated overnight to reach equilibrium, when most of the agent was associated with liposome lipid bilayers. […] To follow exit of pHLIP-mMSA/2pHLIP-dMSA from the membrane, a low pH solution containing 14 μM pHLIP-mMSA/2pHLIP-dMSA and 2.8 mM POPC was mixed with dibasic phosphate buffer to raise the pH from 4 to 7.4. To monitor the fluorescence intensity changes during pHLIP-mMSA/2pHLIP-dMSA insertion induced by the pH change, the emission signal was observed through a cut-off 320 nm filter at an excitation of 295 nm."}, "[6]": {"experiment": "Stability in human plasma", "format": "in vitro ADME", "conditions": "single donor human plasma, 200 µM, 0-24 h at 37°C, methanol precipitation, HPLC C18, UV 220/280/325 nm", "experimental": "Plasma proteins were precipitated by methanol (1:5 volume ratio of plasma to methanol) and centrifuged for 10 min at 13.4 rpm. The supernatant was collected and analyzed by HPLC using a Zorbax SB-C18 4.6 × 250 mm, 5 μm column with a gradient from 20% to 80% acetonitrile in water containing 0.05% TFA. Chromatograms were recorded at 220 nm, 280 nm and 325 nm."}}, "note": "Values joined by “and” are separate entries in the source; they are usually repeats but may differ in a detail not shown here. Identical values can stand only once."}
{"sequence": "ADQDNPWRAYLDLLFPTDTLLLDLLWCG [2pHLIP-dMSA]", "values": [{"measurement": "binding to HSA (in words)", "setting": "[1]", "result": "strong binding"}, {"measurement": "body weight change after treatment (in words)", "setting": "[2]", "result": "temporary weight loss followed by complete recovery and regain of weight"}, {"measurement": "mice survived out of treated, lower dose", "setting": "[3]; two IP injections of 100 µM 500 µL (l.d.) on days 1 and 3", "result": "4 out of 10 and 4/10"}, {"measurement": "mice with tumor eradicated / survived out of treated", "setting": "[3]; two IP injections of 300 µM 500 µL on days 1 and 3", "result": "7/10"}, {"measurement": "EC50", "setting": "[4]", "result": 200, "unit": "nM"}, {"measurement": "time to completion of insertion into the lipid bilayer", "setting": "[5]; pH drop from pH 7.4 to 4, 25°C, fluorescence ex 295 nm", "result": "≤ 100", "unit": "ms"}, {"measurement": "kinetics of membrane insertion (in words)", "setting": "[5]; pH drop from pH 7.4 to 6, compared with pHLIP-mMSA", "result": "more efficient and faster than the insertion of pHLIP-mMSA"}, {"measurement": "exit from the lipid bilayer (in words)", "setting": "[5]; pH rise from pH 4 to 7.4 and from pH 4 to 5.5, compared with pHLIP-mMSA", "result": "slightly slower"}, {"measurement": "stability in human plasma (in words)", "setting": "[6]", "result": "very high"}]}
